From patent US20220154247A1, “ULTRASENSITIVE METHOD FOR DETECTING CELL DEATH” (priority 2019, published 2022)
“Also recorded” adds a separate entry of the source.

Key:
[1] = system: MDA-MB-231 cells; experiment: DNA fragments in the cytoplasmic fraction detected by capillary electrophoresis (fragment analyzer); assay type: cell-based; details: MDA-MB-231 cells treated 24 h with 50 or 100 nM staurosporine, compared to untreated cells
Protocol: MDA-MB-231 cells were inoculated in 6 [MUT] at an amount of 3 million cells per 35 ml of DMEM high glucose medium (10% FCS, P/S). The next day, the MDA-MB-231 cells were treated with 50 nM and 100 nM staurosporine. The medium of the 2 untreated [MUT] was changed. After 24 h of treatment, the MDA-MB-231 cells were lysed with 2 ml of lysis buffer added to the [MUT] for 15 min at ambient temperature, then 2 ml were transferred into a tube and centrifuged at 2000 g for 5 min. The supernatant was then treated with RNaseA (20 μg/ml) and then with Proteinase K (used at 100 ug/ml), and placed at 70° C. for 15 min. The lysis buffer is a mixture of 50 mM 4-(2-hydroxyethyl)-1-piperazineethanesulfonic acid, 5 mM ethylenediaminetetraacetic acid, 150 mM sodium chloride, and 50 μg/ml digitonin. 1/10 volume of sodium acetate (NaAc) (3 M, pH 5.2) was then added. DNA was precipitated with 1 volume of isopropanol. The samples were left at ambient temperature for 15 min and then centrifuged at 20 000 g for 20 min at +4° C. The supernatant was aspirated and the pellet was washed with 75% ethanol. The pellet was dried and then resuspended in 30 μl of TE at pH 8 and analyzed in a fragment analyzer.

[2] = system: MOLM14 cells; experiment: Annexin V/propidium iodide labeling, flow cytometry, percentage of apoptotic cells; assay type: cell-based; details: MOLM14 cells treated 16 h with 0-10 μM etoposide; no plateau with the PCR method
Protocol: The cells are washed with PBS then resuspended in 1× binding buffer at a concentration of 1×10^6 cells/ml. 10 μl of Annexin V Pacific Blue and 10 μl of propidium iodide (Biolegend kit) are added to 200 μl of this cell suspension, which is then incubated for 15 minutes in darkness and at ambient temperature. After centrifugation at 300 g for 5 min, the supernatant is gently aspirated and 500 μl of 1× binding buffer are added.
These cells are then used in flow cytometry for determining the effect of the treatment and the number of cells in apoptosis. These cells are sorted depending on their annexin V and propidium iodide statuses in order to then carry out a PCR.
MOLM14 cells are left untreated (NT) or treated for 16 h with increasing concentrations of etoposide (0-0.62-1.25-2.5-5 or 10 μM).
The cells are labeled using the Pacific Blue™ Annexin V kit (Biolegend) according to the supplier's recommendations and then analyzed by flow cytometry (MACSQuant VYB—Miltenyi Biotec). The percentage of positive apoptotic cells (annexin V) is determined.

| Compound | DNA fragments, a marker of cell death, in the cytoplasmic fraction [1] | concentration from which the flow cytometry method (annexin V) reaches a detection plateau [2] [µM] |
| --- | --- | --- |
| CN[C@@H]1C[C@H]2O[C@@](C)([C@@H]1OC)n1c3ccccc3c3c4c(c5c6ccccc6n2c5c31)C(=O)NC4 [staurosporine] | detected; also recorded: increase in the quantity of DNA fragments |  |
| COc1cc([C@@H]2c3cc4c(cc3[C@@H](O[C@@H]3O[C@@H]5CO[C@@H](C)O[C@H]5[C@H](O)[C@H]3O)[C@H]3COC(=O)[C@H]23)OCO4)cc(OC)c1O [etoposide] |  | ≥ 2.5 |
